Reference: US8022050B2, “Compound for inhibiting TRPA1 function and use thereof” (Korea University Industry and Academic Collaboration …, priority 2008, dated 2011)

Legend:
[1] = test system: pain induced by cinnamaldehyde; test: Acute hind paw licking/flicking behaviors in mice (cinnamaldehyde-induced pain, normal or inflammatory condition); format: in vivo; conditions: hind paw injection, 10 minutes, substance injected alone, FIG. 3a
Experimental: The time spent for the hind paw licking/flicking behaviors in mice were measured according to the method of Bandell M, et al. (Neuron 41:849-857, 2004) and Moqrich A, et al. (Science 307:1468-1472, 2005), for 10 minutes. • Control: non-treatment; • Experimental group 1. […] 300 μM of CA; • Experimental group 3.

[2] = test system: inflammatory sensitization induced by carrageenan; test: Sensitivity to thermal stimulation (avoidance time) in carrageenan-injected mice; format: in vivo; conditions: 10 μl of 0.1% carrageenan 3 h before, 10 μl of 1 mM substance into hind paw, FIG. 4
Experimental: Equal amount of AP18 (Biomol, USA), the TRPA1 specific inhibitor, was injected into the positive control. Avoidance time was measured by using thermal stimulator (Ugo basile plant test, Italy). Each group was composed of 5 mice and beam injection was performed four times, which were averaged.

O=CC=Cc1ccccc1 [cinnamaldehyde]
Time spent for hind paw licking/flicking behaviors, substance alone [1]: increased the time spent for the behaviors

CC(=C\c1ccc(Cl)cc1)/C(C)=N/O [AP18]
Sensitivity against thermal stimulation (avoidance time) [2]: almost no effects
